Measurements taken from patent US20220016079A1, “COMBINATION TREATMENT OF HIV INFECTIONS” (priority 2018, published 2022).

Key:
[1] = tested on: latent HIV-1 in 2D10 cells; test: HIV-1 reactivation in latent GFP-reporter 2D10 cells, Debio 1143 and other LRAs alone or in combination; type: cell-based; details: LRA at single predetermined concentration with Debio 1143, already at 2 μM Debio 1143, 48 h
Protocol: We compared the efficacy of Debio-1143 at reversing HIV-1 latency with that of other LRAs. We then analyzed the cytotoxicity of Debio-1143 with that of the other LRAs on 2D10 cells. Drug titration was conducted.
Methods: HIV-1 latent GFP-reporter 2D10 cells (100,000 cells/100 μL) were treated in triplicate for 48 h with increasing concentrations of either only Debio-1143 or the LRAs (2000 nM or 20000 nM), or with Debio 1143 (2000 nM or 20000 nM) in combination with the LRAs at a single predetermined concentration (see Table 2). HIV reactivation was analyzed via GFP expression by flow cytometry.

[2] = tested on: latent HIV-1 in rCD4+ cells co-cultured with CD8+ cells; test: HIV-1 reactivation in ex vivo co-cultures of rCD4+ and CD8+ cells from an ART-treated HIV patient (HIV RNA in supernatant); type: cell-based, human
Protocol: The efficacy of IAPa, ICI or IAPa/ICI combinations in reversing HIV-1 latency was tested in HIV-1 infected rCD4+ cells co-cultured for 48 h with CD8+ cells from the same donor.
Method: Blood from one HIV-1-infected patient under ART was collected (500 mL) and CD4+ and CD8+ cells isolated using beads coated with specific antibodies following manufacturer's instruction (MojoSort™ Human Cell Isolation Kits from Biolegend). The CD4+ T cells were re-infected with HIV-1 (JR-CSF) (1 μg of p24), incubated for 3 days to allow establishment of infection, and treated with ART ([…]) for 7 days to ensure presence of enough latent HIV CD4+ cells (rCD4+) in the culture. Upon ART removal, rCD4 were then isolated following manufacturer's instruction (EasySep™ Human Resting CD4+ T Cell Isolation Kit). The isolated rCD4 were mixed with autologous (from the same patient) uninfected CD8+ T cells at a 1:1 ratio (100,000 cells) and incubated in duplicate for 48 h with different IAPa ([…]) or ICI (10 μg/ml) in monotherapy, or the IAPa/ICI combinations. Amounts of virions released from cells were quantified at the indicated time points by quantifying HIV RNA levels (HIV RNA copies/mL) in supernatant of cell culture using one-step reverse transcriptase quantitative real-time PCR (ABI custom TaqMan Assays-by-Design) according to the manufacturer's instructions. Primers were 5-[…]-3 and 5-[…]-3, and MGB probe 5-FAM-[…]-Q-3, where FAM is 6-carboxyfluorescein.

BIRC2 = biological target: T1, BIRC2 (Homo sapiens, UniProt Q13490); test: BIRC2 (cIAP1) degradation by Western blotting; type: cell-based; details: TNFα 10 ng/ml, 2D10 and 293T cells
T1 construct: endogenous in cells; host or cells: 2D10, 293T and CD4+ T cells
Protocol: It was investigated whether Debio-1143 reverses HIV-1 latency by acting on the NF-κB pathway. Canonical and non-canonical NF-κB signaling pathways play an important role in the reactivation of latent HIV-1, implicating its regulation as an important therapeutic strategy for latency reversal.
Method: 2D10 (A) or 293T (B) and CD4+ T cells (C) cells were treated with DMSO, Debio-1143 (1 μM) and TNFα (10 ng/ml) for the indicated times and analyzed by Western blotting for BIRC2 and IkBα protein expression using antibodies specifically detecting human BIRC2, human IkBα, or human CypA, such as commercially available (e.g. from R&D Systems, Cell Signaling, Santa Cruz Biotechnology, or other sources).

2D10 cells = test: Cytotoxicity by LDH assay in 2D10 cells; type: cell-based; details: 0 to 20 μM, 48 h
Protocol: Drug titration was conducted.
For analysis of cell viability, cells (100,000 cells/100 μL) were treated in triplicate for 48 h with increasing concentrations of Debio-1143 or other known LRAs (0 to 20 μM). Cellular cytotoxicity was analyzed by Lactate dehydrogenase (LDH) assay. LDH is an oxidoreductase enzyme that catalyzes the interconversion of pyruvate and lactate. Cells release LDH into the bloodstream after tissue damage or red blood cell hemolysis. Since LDH is a fairly stable enzyme, it has been widely used to evaluate the presence of damage and toxicity of tissue and cells. In this particular, LDH reduces NAD to NADH, which is specifically detected by colorimetric (490 nm) assay.

[3] = tested on: latent HIV-1 in resting CD4+ T cells; test: Ex vivo HIV-1 reactivation in human resting CD4+ T cells from ART-treated HIV-1-infected humanized BLT mice (HIV RNA in supernatant); type: cell-based
Protocol: The efficacy of IAPa, ICI or IAPa/ICI combinations in reversing HIV-1 latency was tested in resting CD4+ T cells derived from ART-treated HIV-1-infected humanized BLT mice.
Human resting CD4+ T cells from ten mice were isolated from blood, thymic organoid, lung, spleen, bone marrow, lymph nodes and liver. Isolated human resting CD4+ T cells were pooled, counted, split and treated in duplicate for 48 h with different IAPa (1 μM) or ICI (10 μg/ml) in monotherapy, or the IAPa/ICI combinations. Amounts of virions released from cells were quantified at the indicated time points by quantifying HIV RNA levels (HIV RNA copies/mL) in supernatant of cell culture using one-step reverse transcriptase quantitative real-time PCR (ABI custom TaqMan Assays-by-Design) according to the manufacturer's instructions. Primers were 5-[…]-3 and 5-[…]-3, and MGB probe 5-FAM-[…]-Q-3, where FAM is 6-carboxyfluorescein.
(§1) The experiment was carried out using the same agents as described above for Example 8.1 (with the exception that no birinapant was used).

[4] = tested on: latent HIV in resting CD4+ T-lymphocytes; test: HIV-1 reactivation in resting CD4+ T cells from PBMCs of three ART-treated HIV patients (HIV RNA in supernatant); type: cell-based, human
Excerpt: The experiments of this example analyzed the ability of IAPa, ICIs, or IAPa/ICI combinations at reactivating latent HIV in resting CD4+ T-lymphocytes isolated from peripheral blood monocytic cells (PBMCs) derived from HIV patients currently under ART.
Method: Resting CD4+ T cells were isolated from PBMCs of three ART-treated HIV patients by negative selection and magnetic separation (Easysep Mouse/Human Chimera Isolation Kits from […] technologies). Isolated resting CD4+ T cells (50,000 cells/50 μL) were treated in duplicate for 48h with different IAPa (1 μM) or ICI (10 μg/ml) in monotherapy, or the IAPa/ICI combinations. Amounts of virions released from cells were quantified at the indicated time points by quantifying HIV RNA levels (HIV RNA copies/mL) in supernatant of cell culture using one-step reverse transcriptase quantitative real-time PCR (ABI custom TaqMan Assays-by-Design) according to the manufacturer's instructions. Primers were 5-[…]-3 and 5-[…]-3, and MGB probe 5-FAM-[…]-Q-3, where FAM is 6-carboxyfluorescein.
as §1

[5] = IAPa 1 μM monotherapy (0.1% DMSO, no ICI), 48 h (Table 3)
[6] = IAPa 1 μM with Control IgG1, 48 h (Table 3)
[7] = IAPa 1 μM with Control IgG2, 48 h (Table 3)
[8] = IAPa 1 μM monotherapy (0.1% DMSO, no ICI), 48 h
[9] = IAPa 1 μM with Control IgG1, 48 h
[10] = IAPa 1 μM with Control IgG2, 48 h

T1 sequence (Q13490 whole entry): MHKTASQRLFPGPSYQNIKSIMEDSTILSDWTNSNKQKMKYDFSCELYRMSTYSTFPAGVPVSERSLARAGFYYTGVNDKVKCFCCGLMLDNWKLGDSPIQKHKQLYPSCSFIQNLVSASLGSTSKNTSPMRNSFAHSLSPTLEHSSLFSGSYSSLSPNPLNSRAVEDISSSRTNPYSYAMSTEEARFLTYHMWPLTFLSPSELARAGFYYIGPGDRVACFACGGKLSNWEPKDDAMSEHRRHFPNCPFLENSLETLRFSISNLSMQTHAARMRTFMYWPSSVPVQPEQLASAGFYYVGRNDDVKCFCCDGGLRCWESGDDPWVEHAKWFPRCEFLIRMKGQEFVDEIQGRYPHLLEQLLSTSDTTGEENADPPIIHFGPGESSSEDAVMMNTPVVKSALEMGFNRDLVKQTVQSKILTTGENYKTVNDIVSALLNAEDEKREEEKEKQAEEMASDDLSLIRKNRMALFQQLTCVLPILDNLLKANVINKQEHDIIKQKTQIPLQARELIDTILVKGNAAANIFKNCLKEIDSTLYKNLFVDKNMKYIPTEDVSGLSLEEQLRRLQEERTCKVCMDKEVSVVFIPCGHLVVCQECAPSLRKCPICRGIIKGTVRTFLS

Molecule: Cc1sc2c(c1C)C(c1ccc(Cl)cc1)=N[C@@H](CC(=O)OC(C)(C)C)c1nnc(C)n1-2 [JQ1]
- degree of HIV reactivation in combination with Debio 1143 [1]: high degrees of HIV reactivation

Molecule: CC[C@H](NC(=O)[C@H](C)NC)C(=O)N1C[C@@H](O)C[C@H]1Cc1c(-c2[nH]c3cc(F)ccc3c2C[C@@H]2C[C@H](O)CN2C(=O)[C@H](CC)NC(=O)[C@H](C)NC)[nH]c2cc(F)ccc12 [Birinapant]
- latency reversal class (HIV RNA copies/ml in supernatant) ([2]; IAPa 1 μM monotherapy (0.1% DMSO, no ICI), 48 h (Table 4)): 3 (Subsequent classes were defined accordingly in steps of 500 RNA copies/ml)
- latency reversal class (HIV RNA copies/ml in supernatant) ([2]; IAPa 1 μM with Control IgG1, 48 h (Table 4)): 3 (Subsequent classes were defined accordingly in steps of 500 RNA copies/ml)
- latency reversal class (HIV RNA copies/ml in supernatant) ([2]; IAPa 1 μM with Control IgG2, 48 h (Table 4)): 3 (Subsequent classes were defined accordingly in steps of 500 RNA copies/ml)

Molecule: TNFα [reference compound]
- BIRC2 degradation (BIRC2): not

Molecule: CN1C(=O)[C@@]23C[C@]4([C@]56C[C@@]78SS[C@@](CO)(C(=O)N7[C@H]5Nc5ccccc56)N(C)C8=O)c5ccccc5N[C@@H]4N2C(=O)[C@]1(CO)SS3 [chaetocin]
- cytotoxicity (LDH assay) (2D10 cells): highly toxic

Molecule: Cc1[nH]c2ccccc2c1CCNCc1ccc(/C=C/C(=O)NO)cc1 [panobinostat]
- cytotoxicity (LDH assay) (2D10 cells): highly toxic

Molecule: CN[C@@H](C)C(=O)N[C@H](C(=O)N1CCC[C@H]1C(=O)Nc1sc(-c2ncco2)nc1-c1ccccc1)C1CCCCC1 [CUDC-427]
- latency reversal class (HIV RNA copies/ml in supernatant) [2, 5]: 3 (Subsequent classes were defined accordingly in steps of 500 RNA copies/ml)
- latency reversal class (HIV RNA copies/ml in supernatant) [2, 6]: 3 (Subsequent classes were defined accordingly in steps of 500 RNA copies/ml)
- latency reversal class (HIV RNA copies/ml in supernatant) [2, 7]: 3 (Subsequent classes were defined accordingly in steps of 500 RNA copies/ml)
- latency reversal class (HIV RNA copies/ml in supernatant) [3, 8]: 2 (Between 2501 and 5000 RNA copies/ml were classified as “2”)
- latency reversal class (HIV RNA copies/ml in supernatant) [3, 9]: 2 (Between 2501 and 5000 RNA copies/ml were classified as “2”)
- latency reversal class (HIV RNA copies/ml in supernatant) [3, 10]: 2 (Between 2501 and 5000 RNA copies/ml were classified as “2”)
- latency reversal class (HIV RNA copies/ml in supernatant) [4, 8]: 1 (Between 501 and 1000 RNA copies/ml were classified as “1”)
- latency reversal class (HIV RNA copies/ml in supernatant) [4, 9]: 1 (Between 501 and 1000 RNA copies/ml were classified as “1”)
- latency reversal class (HIV RNA copies/ml in supernatant) [4, 10]: 1 (Between 501 and 1000 RNA copies/ml were classified as “1”)

Molecule: O=C(CCCCCCC(=O)Nc1ccccc1)NO [vorinostat]
- degree of HIV reactivation in combination with Debio 1143 [1]: high degrees of HIV reactivation

Molecule: Nc1ccccc1NC(=O)c1ccc(CNC(=O)OCc2cccnc2)cc1 [entinostat]
- degree of HIV reactivation in combination with Debio 1143 [1]: high degrees of HIV reactivation

Molecule: CN[C@@H](C)C(=O)N[C@H](C(=O)N1CCC[C@H]1c1nc(C(=O)c2ccc(F)cc2)cs1)C1CCCCC1 [LCL161]
- latency reversal class (HIV RNA copies/ml in supernatant) [2, 5]: 3 (Subsequent classes were defined accordingly in steps of 500 RNA copies/ml)
- latency reversal class (HIV RNA copies/ml in supernatant) [2, 6]: 2 (Subsequent classes were defined accordingly in steps of 500 RNA copies/ml)
- latency reversal class (HIV RNA copies/ml in supernatant) [2, 7]: 3 (Subsequent classes were defined accordingly in steps of 500 RNA copies/ml)
- latency reversal class (HIV RNA copies/ml in supernatant) [3, 8]: 2 (Between 2501 and 5000 RNA copies/ml were classified as “2”)
- latency reversal class (HIV RNA copies/ml in supernatant) [3, 9]: 2 (Between 2501 and 5000 RNA copies/ml were classified as “2”)
- latency reversal class (HIV RNA copies/ml in supernatant) [3, 10]: 2 (Between 2501 and 5000 RNA copies/ml were classified as “2”)
- latency reversal class (HIV RNA copies/ml in supernatant) [4, 8]: 1 (Between 501 and 1000 RNA copies/ml were classified as “1”)
- latency reversal class (HIV RNA copies/ml in supernatant) [4, 9]: 1 (Between 501 and 1000 RNA copies/ml were classified as “1”)
- latency reversal class (HIV RNA copies/ml in supernatant) [4, 10]: 1 (Between 501 and 1000 RNA copies/ml were classified as “1”)

Molecule: CCC/C=C/C=C/C(=O)O[C@H]1/C(=C/C(=O)OC)C[C@H]2C[C@H]([C@@H](C)O)OC(=O)C[C@H](O)C[C@@H]3C[C@H](OC(C)=O)C(C)(C)[C@](O)(C[C@@H]4C/C(=C/C(=O)OC)C[C@H](/C=C/C(C)(C)[C@]1(O)O2)O4)O3 [bryostatin-1]
- degree of HIV reactivation in combination with Debio 1143 [1]: high degrees of HIV reactivation
- cytotoxicity (LDH assay) (2D10 cells): highly toxic
